Assay results from patent US20220177485A1, “CAMPTOTHECIN DERIVATIVE, PREPARATION METHOD THEREFOR AND APPLICATION THEREOF” (MARINE BIOMEDICAL RESEARCH INSTITUTE OF QINGDAO CO., LTD., priority 2018, published 2022).
Like-named read-outs stand apart in the source and are kept apart here. Marks after values point to notes of the source that are not given here.

Legend:
[1] = system: HCT-116 cells (human colon cancer cells); assay: cells; type: cell-based; settings: for IC50: Homo sapiens
Description: (§1) We tested compounds target a variety of tumor cell for the growth inhibition to show its antitumor activity by using the method of the field technicians known. Chooses the tumor cell lines include: A549 cell non-small cell lung cancer cell line (people), K562 cells (human chronic myeloid leukemia cells), NCI-H1975 cells (non-small cell lung adenocarcinoma cancer cell), MDA-MB-231 cells (human breast cancer cells) and HCT-116 cells (human colon cancer cells).

[2] = system: NCI-H1975 cells (non-small cell lung adenocarcinoma cancer cell); assay: growth inhibition of tumor cells in vitro, NCI-H1975; type: cell-based; settings: for IC50: Homo sapiens
Description: as §1

[3] = system: MDA-MB-231 cells (human breast cancer cells); assay: growth inhibition of tumor cells in vitro, MDA-MB-231; type: cell-based; settings: for IC50: Homo sapiens
Description: as §1

[4] = system: A549 cell non-small cell lung cancer cell line; assay: growth inhibition of tumor cells in vitro, A549; type: cell-based, human
Description: as §1

[5] = system: K562 cells (human chronic myeloid leukemia cells); assay: growth inhibition of tumor cells in vitro, K562; type: cell-based
Description: as §1

[6] = target: T1, epidermal growth factor (EGF) (Homo sapiens, UniProt P01133); assay: macromolecular interaction on chip, EGF; type: binding; settings: for KD EGF: compound fixed on the chip, EGF 1 μM
T1 construct: epidermal growth factor (EGF)
T1 sequence (P01133 971-1023 limits assumed, species assumed): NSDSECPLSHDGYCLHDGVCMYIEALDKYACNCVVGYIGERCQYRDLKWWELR
Method: (§2) The experimental scheme: 1. Fixed the compounds on the chip:
(§3) Mobile phase were EGF (1 μM), FGF (1 μM), HSP90 (100 nM), FKBP12 (100 nM).
(§4) Detection whether small molecule compounds combined with the provided protein of heat shock protein (HSP90), epidermal growth factor (EGF) and fibroblast growth factor (FGF); and provide relevant data of combined dynamics.

[7] = target: heat shock protein (HSP90); assay: macromolecular interaction on chip, HSP90; type: binding; settings: compound fixed on the chip; HSP90 100 nM
Method: as §2, §3, §4

[8] = target: fibroblast growth factor (FGF); assay: macromolecular interaction on chip, FGF; type: binding; settings: compound fixed on the chip; FGF 1 μM
Method: as §2, §3, §4

[9] = system: HCT-116 transplanted tumors; settings: for Inhibitory rate: day 23
Method: Digesting collecting cells after the desired amount of cells. Diluting the cells into 250 million/ml cell suspension with 5 A culture medium containing 10% fetal bovine serum. […] Stay around tumor growth to 1 g tissue block, cutting short diameter growth of around 1 mm plaque, by inserting a catheter method. […] Compound of low dose group and high dose group were given by gavages once a week, respectively. The group of irinotecan and 5-fluorouracil were treated by intravenous every three days. Recording changes in body weight in mice, and tumors size three times a week.

[10] = system: A549 lung transplantation tumor model and RM-1 (prostate) transplantation tumor model; assay: antitumor activity in vivo, transplanted tumor models in kunming mice; settings: intraperitoneal injection
Method: Using the known in the field of technology, the antitumor activity of compounds in vivo was tested in kunming mice transplanted tumor model. The transplantation tumor models tested including A549 lung transplantation tumor model and RM-1 (prostate) transplantation tumor model. We conducted the tests by intraperitoneal injection.

[11] = HCT-116, read-out: IC50 HCT-116
[12] = NCI-H1975, read-out: IC50 NCI-H1975
[13] = MDA-MB-231, read-out: IC50 MDA-MB-231
[14] = Homo sapiens, A549, A549 cell line, read-out: IC50 A549
[15] = K562 cell line, read-out: IC50 K562
[16] = Homo sapiens, A549, read-out: IC50 A549, A549 cell line
[17] = HCT-116 cell line, read-out: IC50 HCT-116
[18] = NCI-H1975 cell line, read-out: IC50 NCI-H1975
[19] = MDA-MB-231 cell line, read-out: IC50 MDA-MB-231

SMILES	IC50 [4, 14]	IC50 [5, 15]	KD EGF [6]	KD HSP90 [7]	KD FGF [8]	other results
CC[C@@]1(O)C(=O)OCc2c1cc1n(c2=O)Cc2c-1nc1cc3c(cc1c2-c1cnn(C2CCCCO2)c1)OCO3 (stereo partly drawn) [Compound 28]	–	–	–	–	–	IC50 [1, 11]: 0.78 ± 0.06 nM; IC50 [2, 12]: 7.97 ± 0.52 nM; IC50 [3, 13]: 1.56 ± 0.14 nM
CC[C@@]1(O)C(=O)OCc2c1cc1n(c2=O)Cc2c-1nc1cc3c(cc1c2-c1cc(C(F)(F)F)cc(C(F)(F)F)c1)OCO3 [Compound 33]	174 ± 8.62 nM	702 ± 8.87 nM	–	–	–	–
CC[C@@]1(O)C(=O)OCc2c1cc1n(c2=O)Cc2c-1nc1cc3c(cc1c2-c1cccnc1)OCO3 [Compound 22, 20(S)-7-(pyridin-3-yl)-10,11-methylenedioxy-camptothecin]	–	–	–	–	–	IC50 [1, 11]: 0.18 ± 0.03 nM; IC50 [2, 12]: 12.6 ± 2.43 nM; IC50 [3, 13]: 4.09 ± 0.46 nM
CC[C@@]1(O)C(=O)OCc2c1cc1n(c2=O)Cc2c-1nc1cc3c(cc1c2-c1ccc2c(c1)OCO2)OCO3 [Compound 38]	–	–	–	–	–	IC50 [4, 16]: 282 ± 7.77 nM; IC50 ([5]; K562, read-out: IC50 K562): 202 ± 7.32 nM
CC[C@@]1(O)C(=O)OCc2c1cc1n(c2=O)Cc2c-1nc1cc3c(cc1c2-c1ccnn1C)OCO3 [Compound 30]	–	–	–	–	–	IC50 [1, 11]: 0.93 ± 0.08 nM; IC50 [2, 12]: 37.3 ± 2.82 nM; IC50 [3, 13]: 43.4 ± 2.18 nM
CC[C@@]1(O)C(=O)OCc2c1cc1n(c2=O)Cc2cc3c(CN(C)C)c(O)ccc3nc2-1 [Topotecan, reference compound]	559 ± 8.6 nM	636 ± 8.95 nM	No combination	No combination	No combination	IC50 [1, 17]: > 500 nM; IC50 [2, 18]: > 500 nM; IC50 [3, 19]: 123 ± 18.2 nM
CC[C@@]1(O)C(=O)OCc2c1cc1n(c2=O)Cc2c-1nc1cc3c(cc1c2-c1ccncc1)OCO3 [Compound 21, 20(S)-7-(pyridin-4-yl)-10,11-methylenedioxy-camptothecin]	–	–	can combine	No combination	can combine	Kd [6]: 49.3 nM; Kd [8]: 18.9 nM; IC50 [1, 11]: 0.74 ± 0.07 nM; IC50 [2, 12]: 20.4 ± 3.65 nM; IC50 [3, 13]: 4.92 ± 0.36 nM
CCc1c2c(nc3ccc(OC(=O)N4CCC(N5CCCCC5)CC4)cc13)-c1cc3c(c(=O)n1C2)COC(=O)[C@]3(O)CC [Irinotecan, reference compound]	–	–	–	–	–	Inhibitory rate ([9]; 6 mg/kg intravenous every three days): 78.12^a %
CC[C@@]1(O)C(=O)OCc2c1cc1n(c2=O)Cc2c-1nc1cc3c(cc1c2-c1ccc(C(C)(C)C)cc1)OCO3 [Compound 37]	–	–	–	–	–	IC50 [4, 16]: 387 ± 3.75 nM; IC50 ([5]; K562, read-out: IC50 K562): 785 ± 9.23 nM
CC[C@@]1(O)C(=O)OCc2c1cc1n(c2=O)Cc2c-1nc1cc3c(cc1c2/C=C/C=C/c1ccccc1)OCO3 [Compound 1, 20(S)-7-(styrene-butadiene-yl)-10,11-methylenedioxy-camptothecin]	763 ± 5.05 nM	1652 ± 10.6 nM	No combination	No combination	No combination	melting point: 206 to 214 °C
CC[C@@]1(O)C(=O)OCc2c1cc1n(c2=O)Cc2c-1nc1cc3c(cc1c2-c1ccco1)OCO3 [Compound 27, 20(S)-7-(furan-2-yl)-10,11-methylenedioxy-camptothecin]	–	–	–	–	–	IC50 [1, 11]: 0.25 ± 0.01 nM; IC50 [2, 12]: 4.53 ± 0.16 nM; IC50 [3, 13]: 1.79 ± 0.14 nM
CC[C@@]1(O)C(=O)OCc2c1cc1n(c2=O)Cc2c-1nc1cc3c(cc1c2CCc1ccc(N2CCOCC2)c(F)c1)OCO3 [Compound 10, 20(S)-7-(3-fluoro-4-(4-morpholino)phenethyl)-10,11-methylenedioxy-camptothecin]	1223 ± 8.75 nM	564 ± 9.85 nM	No combination	No combination	No combination	melting point: > 250 °C
CC[C@@]1(O)C(=O)OCc2c1cc1n(c2=O)Cc2c-1nc1cc3c(cc1c2CCN1CCOCC1)OCO3 [Compound 51, 20(S)-7-(2-morpholinoethyl)-10,11-methylenedioxy-camptothecin]	–	13 ± 3.25 nM	can combine	No combination	can combine	antitumor activity in vivo compared with topotecan [10]: better than that of topotecan; Kd [6]: 4.15 nM; Kd [8]: 46 nM
CC[C@@]1(O)C(=O)OCc2c1cc1n(c2=O)Cc2c-1nc1cc3c(cc1c2-c1ccccc1)OCO3 [Compound 36]	422 ± 10.3 nM	1327 ± 8.96 nM	–	–	–	–
CC[C@@]1(O)C(=O)OCc2c1cc1n(c2=O)Cc2c-1nc1cc3c(cc1c2-c1ccc(F)cc1F)OCO3 [Compound 40]	–	–	–	–	–	IC50 [4, 16]: 836 ± 8.69 nM; IC50 ([5]; K562, read-out: IC50 K562): 1168 ± 9.69 nM
CC[C@@]1(O)C(=O)OCc2c1cc1n(c2=O)Cc2c-1nc1cc3c(cc1c2/C=C/c1cc(F)c(F)c(F)c1)OCO3 [Compound 7]	1904 ± 8.64 nM	1772 ± 9.68 nM	can combine	No combination	can combine	Kd [6]: 51.5 nM; Kd [8]: 53.6 nM
CC[C@@]1(O)C(=O)OCc2c1cc1n(c2=O)Cc2c-1nc1cc3c(cc1c2CCc1ccccc1N1CCOCC1)OCO3 [Compound 15]	–	–	–	–	–	antitumor activity in vivo compared with topotecan [10]: better than that of topotecan; melting point: > 250 °C
CC[C@@]1(O)C(=O)OCc2c1cc1n(c2=O)Cc2c-1nc1cc3c(cc1c2-c1cnn(C)c1)OCO3 [Compound 25, 20(S)-7-(1-methyl-1H-pyrazol-4-yl)-10,11-methylenedioxy-camptothecin]	–	–	No combination	No combination	No combination	IC50 [1, 17]: 0.34 ± 0.06 nM; IC50 [2, 18]: 35.2 ± 3.15 nM; IC50 [3, 19]: 3.76 ± 1.08 nM
CC[C@@]1(O)C(=O)OCc2c1cc1n(c2=O)Cc2c-1nc1cc3c(cc1c2-c1cccs1)OCO3 [Compound 26, 20(S)-7-(thiophene-2-yl)-10,11-methylenedioxy-camptothecin]	–	–	–	–	–	IC50 [1, 11]: 102 ± 6.18 nM; IC50 [2, 12]: 0.36 ± 0.06 nM; ranking of activity in NCI-H1975 ([2]; among Table 2 compounds): best activities; IC50 [3, 13]: 0.56 ± 0.03 nM; ranking of activity in MDA-MB-231 ([3]; among Table 2 compounds): best activities
O=c1[nH]cc(F)c(=O)[nH]1 [5 - fluorouracil, 5-fluorouracil, reference compound]	–	–	–	–	–	Inhibitory rate ([9]; 20 mg/kg intravenous every three days): 55.64^a %; Tumor volume size ([9]; 20 mg/kg intravenous every three days, day 23, x ± SE): 342.28 ± 128.00^a mm^3
CC[C@@]1(O)C(=O)OCc2c1cc1n(c2=O)Cc2c-1nc1cc3c(cc1c2-c1ccc2[nH]ccc2c1)OCO3 [Compound 29]	–	–	–	–	–	IC50 [1, 11]: 1.84 ± 0.11 nM; IC50 [2, 12]: 79.7 ± 3.52 nM; IC50 [3, 13]: 7.98 ± 0.72 nM
CC[C@@]1(O)C(=O)OCc2c1cc1n(c2=O)Cc2c-1nc1cc3c(cc1c2/C=C/c1ccc(F)c(F)c1)OCO3 [Compound 6]	530 ± 7.6 nM	757 ± 8.62 nM	No combination	No combination	can combine	Kd [8]: 8.99 nM
CC[C@@]1(O)C(=O)OCc2c1cc1n(c2=O)Cc2c-1nc1cc3c(cc1c2-c1ccsc1)OCO3 [Compound 24, 20(S)-7-(thiophene-3-yl)-10,11-methylenedioxy-camptothecin]	–	–	No combination	No combination	No combination	ranking of cytotoxic activity in HCT-116 [1]: best cytotoxic activity; IC50 [1, 17]: 0.21 ± 0.02 nM; IC50 [2, 18]: 16.2 ± 0.83 nM; IC50 [3, 19]: 1.93 ± 0.26 nM
CC[C@@]1(O)C(=O)OCc2c1cc1n(c2=O)Cc2c-1nc1cc3c(cc1c2CCc1ccc(N2CCCC2)cc1)OCO3 [Compound 9, 20(S)-7-(4-(pyrrolidin-1-yl)phenethyl)-10,11-methylenedioxy-camptothecin]	1522 ± 10.5 nM	1366 ± 12.5 nM	No combination	No combination	No combination	melting point: 205 to 207 °C
CC[C@@]1(O)C(=O)OCc2c1cc1n(c2=O)Cc2c-1nc1cc3c(cc1c2CCc1cccc(N2CCOCC2)c1)OCO3 [Compound 14]	10 to 50 nM	1949 ± 15.7 nM	No combination	No combination	No combination	IC50 ([4]; A549 cell line, read-out: IC50 A549): 19 ± 3.47 nM; melting point: 163 to 165 °C
CC[C@@]1(O)C(=O)OCc2c1cc1n(c2=O)Cc2c-1nc1cc3c(cc1c2/C=C/C=C/c1ccc(OC)cc1)OCO3 [Compound 2]	1268 ± 4.65 nM	2693 ± 9.63 nM	No combination	No combination	No combination	–
